Reference: EP4159213A1, “PHARMACEUTICAL COMPOSITIONS FOR USE IN PREVENTION AND/OR TREATMENT AND/OR CURE OF HEPATITIS B VIRUS” (Katholieke Universiteit Leuven, priority 2021, dated 2023)
Where a name gives a salt, the structure may show the parent alone. Read-outs that look alike come from different tables or passages of the source. Residues, ends and D or L forms follow the SMILES beside them.

Biological target: T1, human NTCP (Homo sapiens, UniProt Q14973)
T1 sequence (Q14973 1-349): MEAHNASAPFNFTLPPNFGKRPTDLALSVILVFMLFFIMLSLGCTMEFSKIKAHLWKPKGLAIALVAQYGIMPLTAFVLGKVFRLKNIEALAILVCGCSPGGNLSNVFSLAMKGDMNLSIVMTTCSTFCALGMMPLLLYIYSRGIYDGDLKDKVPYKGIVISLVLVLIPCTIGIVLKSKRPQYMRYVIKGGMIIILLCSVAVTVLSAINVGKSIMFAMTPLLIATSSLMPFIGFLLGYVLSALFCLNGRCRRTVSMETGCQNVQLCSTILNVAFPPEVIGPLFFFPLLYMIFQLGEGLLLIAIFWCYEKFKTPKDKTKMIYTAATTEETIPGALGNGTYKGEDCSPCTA
Test: Inhibition of tauro-nor-THCA-24-DBD uptake in NTCP-transfected CHO cells
Assay type: cell-based
Design: expressed in transfected cells; host or cells: CHO cells, geneticin selection, expression induced with sodium butyrate
Details: for concentration-dependent inhibition of tauro-nor-THCA-24-DBD uptake: multiple inhibitor concentrations
Protocol: The cells were placed in an incubator at 37 °C and 5% CO2. The culture medium consisted of DMEM with 1 g·L^-1 glucose and 25 mM HEPES, supplemented with 10% FBS, 0.05 mg·mL^-1 L-proline, 100 IU·mL^-1 penicillin, 100 […], 2 mM glutamine, 0.11 mg·mL^-1 sodium pyruvate. To ensure selection of NTCP-transfected cells, 0.5 mg·mL^-1 geneticin was added to the medium of the transfected cells. Cells were seeded in black 96-well plates with transparent bottom at a density of 6000 cells·well^-1 and 4000 cells·well^-1 for wild-type and transfected cells, respectively. The medium was replaced every other day and 5 mM sodium butyrate was added to induce protein expression at least 36 h before the start of the experiments. Experiments were performed on day 4 or 5 after seeding when confluence was reached.
Furthermore, to analyse the uptake experiments in NTCP-transfected CHO cells, cells were rinsed twice with 200 µL-well^-1 uptake buffer (HBSS containing 10 mM HEPES, pH 7.4) at 37 °C and subsequently preincubated with 100 µL uptake buffer for 15 minutes. For inhibition experiments, compounds were added at double concentration during preincubation. Uptake was initiated by adding 100 µL double-concentrated tauro-nor-THCA-24-DBD solution in uptake buffer. Cells were incubated for 15 minutes. The reaction was quenched by aspirating the incubation mixture and washing four times with ice cold uptake buffer. The cells were lysed with 100 µL 0.5% Triton X-100 in PBS and placed on a plate shaker (300 rpm) at room temperature for 30 minutes. Uptake of tauro-nor-THCA-24-DBD was determined using fluorescence spectroscopy (excitation 440 nm, emission 580 nm) using a Tecan Infinite 200 plate reader (Tecan Benelux, Mechelen, Belgium). Protein content of each well was determined with the BCA Protein assay (Thermo Fisher Scientific, Waltham, MA) performed according to the manufacturer's protocol. Uptake kinetics of tauro-nor-THCA-24-DBD were determined by incubating eight different concentrations in the absence of any compound. […] All conditions were tested in triplicate.
Uptake of tauro-nor-THCA-24-DBD in presence of compounds was expressed to uptake of the control for each batch, i.e. when no compound was present.
For determination of the IC50, the uptake in presence of various concentrations of inhibitor was fitted to the sigmoid Emax model: E = Emax −(Emax−E0) × (([I])^n)/(([I])^n + IC50^n) [formula] with E the uptake of tauro-nor-THCA-24-DBD, E0 the uptake at maximal inhibition by the compound, Emax the uptake at minimal inhibition, IC50 the concentration of the inhibitor at half maximal inhibition, n the Hill coefficient and [I] the concentration of the inhibitor. All curves were fitted with nonlinear least squares regression using R version 3.5.1.
Assuming competitive inhibition, the Cheng-Prusoff equation was used to determine the Ki value: Ki = (IC50)/(1 + ([S])/(Km)) [formula] where Ki is the binding affinity of the inhibitor, IC50 the concentration of the inhibitor at half maximal inhibition, [S] the substrate concentration, and Km the Michaelis-Menten constant of the substrate.

[1] = 3 µM tauro-nor-THCA-24-DBD, Cheng-Prusoff from IC50, screening hits, read-out: Ki
[2] = compound at equimolar concentration with 3 µM tauro-nor-THCA-24-DBD, triplicate
[3] = 3 µM tauro-nor-THCA-24-DBD, 15 minutes, Cheng-Prusoff from IC50, known NTCP inhibitors, read-out: Ki ± SE

| SMILES | Ki [1] | Uptake of tauro-nor-THCA-24-DBD (% of control) [2] | further results |
| --- | --- | --- | --- |
| O=C(O)c1cc([N+](=O)[O-])ccc1NCCCc1ccccc1 [5-nitro-2-phenylpropylaminobenzoic acid] | 0.82 µM | 49.55 % of control | – |
| C=CC(C)(O)CCC=C(C)C (stereo not drawn) [(+)- Linalool] | – | 46.35 % of control | – |
| COc1cc2c(cc1OC)[C@@H]1C(=O)c3ccc4c(c3O[C@@H]1CO2)C=CC(C)(C)O4 [(-)-Deguelin] | 1.67 µM | 27.97 % of control | – |
| COc1ccc(-c2oc3c(CC=C(C)C)c(O)cc(O)c3c(=O)c2O[C@@H]2O[C@@H](C)[C@H](O)[C@@H](O)[C@H]2O)cc1 [Baohuoside I] | – | – | concentration-dependent inhibition of tauro-nor-THCA-24-DBD uptake (3 µM tauro-nor-THCA-24-DBD): showed concentration-dependent inhibition; Ki (3 µM tauro-nor-THCA-24-DBD, values given with ± spread, read-out: Ki): 12.6 ± 4.1 µM |
| COc1ccccc1Oc1c(NS(=O)(=O)c2ccc(C(C)(C)C)cc2)nc(-c2ncccn2)nc1OCCO [Bosentan] | – | – | Ki [3]: 6.3 ± 1.4 µM; concentration-dependent inhibition of tauro-nor-THCA-24-DBD uptake (3 µM tauro-nor-THCA-24-DBD): concentration-dependent manner |
| O=C1OC(c2ccc(O)c(S(=O)(=O)O)c2)(c2ccc(O)c(S(=O)(=O)O)c2)c2c(Br)c(Br)c(Br)c(Br)c21 [Bromosulfophthalein] | – | – | Ki [3]: 10.7 ± 3.1 µM; concentration-dependent inhibition of tauro-nor-THCA-24-DBD uptake (3 µM tauro-nor-THCA-24-DBD): concentration-dependent manner |
| CCOc1nc2cccc(C(=O)OC(C)OC(=O)OC3CCCCC3)c2n1Cc1ccc(-c2ccccc2-c2nnn[nH]2)cc1 (centres unmarked) [Candesartan cilextil] | 0.34 µM | 19.76 % of control | – |
| Cn1nnnc1SCC1=C(C(=O)O)N2C(=O)[C@@H](NC(=O)[C@H](O)c3ccccc3)[C@H]2SC1 [Cefamandole sodium] | 2.07 µM | 23.97 % of control | – |
| COC(=O)CC[C@@H](C)[C@H]1CC[C@H]2[C@@H]3[C@H](O)C[C@@H]4C[C@H](O)CC[C@]4(C)[C@H]3C[C@H](O)[C@]12C [Cholic acid, methyl ester] | – | – | Ki: 2.32 µM; Uptake of tauro-nor-THCA-24-DBD (% of control): 37.90 % of control |
| COc1cc(OC)c2ccc(=O)oc2c1 [Citropten] | – | 46.97 % of control | – |
| CC(C)(O)CC[C@@H](O)[C@](C)(O)[C@H]1CC[C@@]2(O)C3=CC(=O)[C@@H]4C[C@@H](O)[C@@H](O)C[C@]4(C)[C@H]3CC[C@]12C [Crustecdysone] | – | 46.18 % of control | – |
| CC/C(=C(/CC)c1ccc(O)cc1)c1ccc(O)cc1 [Diethylstilbestrol] | 1.57 µM | 48.51 % of control | – |
| COc1cc2c(cc1OC)[C@@H]1C(=O)c3ccc4c(c3O[C@@H]1CO2)C[C@H](C(C)C)O4 [Dihydrorotenone] | 1.11 µM | 37.31 % of control | – |
| CCC(=O)O[C@H]1[C@H](O[C@@H]2[C@@H](C)[C@H](O[C@H]3C[C@@](C)(OC)[C@@H](O)[C@H](C)O3)[C@@H](C)C(=O)O[C@H](CC)[C@@](C)(O)[C@H](O)[C@@H](C)C(=O)[C@H](C)C[C@@]2(C)O)O[C@H](C)C[C@@H]1N(C)C [Erythromycin estolate] | 0.52 µM | 8.49 % of control | – |
| O=C(O)c1ccccc1Nc1cccc(C(F)(F)F)c1 [Flufenamic acid] | 7.51 µM | 44.12 % of control | – |
| CN[C@@H]1[C@@H](O)[C@@H](O[C@@H]2[C@@H](O)[C@H](O[C@H]3O[C@H]([C@@H](C)O)[C@@H](O)[C@H](O)[C@H]3N)[C@@H](N)C[C@H]2N)OC[C@]1(C)O [Geneticin] | – | 43.81 % of control | – |

| SMILES | Ki [1] | Uptake of tauro-nor-THCA-24-DBD (% of control) [2] | further results |
| --- | --- | --- | --- |
| CC(=O)O.Cc1cc2c(C(C)C)c(O)c(O)c(C=O)c2c(O)c1-c1c(C)cc2c(C(C)C)c(O)c(O)c(C=O)c2c1O [Gossypol-acetic acid complex] | 3.1 µM | 36.14 % of control | – |
| Cc1cc2c(C(C)C)c(O)c(O)c(C=O)c2c(O)c1-c1c(C)cc2c(C(C)C)c(O)c(O)c(C=O)c2c1O [Gossypol] | 0.4 µM | 12.48 % of control | – |
| Cc1cc(O)c(C=O)c(O)c1C(=O)O [Haematommic acid] | – | 49.33 % of control | – |
| Oc1c(Cl)cc(Cl)c(Cl)c1Cc1c(O)c(Cl)cc(Cl)c1Cl [Hexachlorophene] | – | 23.92 % of control | Ki: 0.26 µM |
| COc1cc(-c2coc3cc(OCc4ccccc4)c(OC)c(O)c3c2=O)cc(O)c1OC [Irigenin, 7-benzyl ether] | 13 µM | 46.71 % of control | – |
| CC(=O)O[C@H]1C[C@H](O[C@H]2[C@@H](O)C[C@H](O[C@H]3[C@@H](O)C[C@H](O[C@H]4CC[C@@]5(C)[C@H](CC[C@@H]6[C@@H]5C[C@@H](O)[C@]5(C)[C@@H](C7=CC(=O)OC7)CC[C@]65O)C4)O[C@@H]3C)O[C@@H]2C)O[C@H](C)[C@H]1O[C@@H]1O[C@H](CO)[C@@H](O)[C@H](O)[C@H]1O [Lanatoside c] | – | – | Ki: 125 µM; Uptake of tauro-nor-THCA-24-DBD (% of control): 45.13 % of control |
| CCCCCc1c2c(cc(O)c1C(=O)O)OC(=O)c1c(cc(OC)cc1C(=O)CCCC)O2 [Lobaric acid] | 0.36 µM | 9.70 % of control | – |
| COC(=O)CC[C@@H](C)[C@H]1CC[C@H]2[C@@H]3CC[C@@H]4C[C@H](O)CC[C@]4(C)[C@H]3C[C@H](O)[C@]12C [Methyl deoxycholate] | 4.84 µM | 36.71 % of control | – |
| COC(=O)C1=C(C)NC(C)=C(C(=O)OCCN(C)Cc2ccccc2)C1c1cccc([N+](=O)[O-])c1 (centres unmarked) [Nicardipine hydrochloride] | 3.53 µM | 42.69 % of control | – |
| O=C(Nc1ccc([N+](=O)[O-])cc1Cl)c1cc(Cl)ccc1O [Niclosamide] | 0.08 µM | 35.45 % of control | – |
| Oc1c(Cl)c(Cl)c(Cl)c(Cl)c1Cl [Pentachlorophenol] | 2.27 µM | 46.29 % of control | – |
| N[C@@H](Cc1ccccc1)C(=O)N[C@@H](Cc1ccc(O)cc1)C(=O)O [Phenylalanyltyrosine] (H-Phe-Tyr-OH) | – | 47.22 % of control | – |
| COC(=O)[C@H]1[C@H]2C[C@H]3c4[nH]c5ccccc5c4CCN3C[C@H]2CC[C@@H]1O [Rauwolscine hydrochloride] | 39.3 µM | – | – |
| COc1ccc(-c2c(OC)c3c(OC)c4c(cc3oc2=O)OC(C)(C)C=C4)cc1 [Robustic acid methyl ether] | 10.6 µM | 21.11 % of control | – |
| COc1c(CC=C(C)C)c2c(c3oc(=O)c(-c4ccc(O)cc4)c(O)c13)C=CC(C)(C)O2 [Scandenin] | – | 38.92 % of control | – |
| O=C(OC[C@H]1O[C@@H](OC(=O)c2cc(O)c(O)c(OC(=O)c3cc(O)c(O)c(O)c3)c2)[C@H](OC(=O)c2cc(O)c(O)c(OC(=O)c3cc(O)c(O)c(O)c3)c2)[C@@H](OC(=O)c2cc(O)c(O)c(OC(=O)c3cc(O)c(O)c(O)c3)c2)[C@@H]1OC(=O)c1cc(O)c(O)c(OC(=O)c2cc(O)c(O)c(O)c2)c1)c1cc(O)c(O)c(OC(=O)c2cc(O)c(O)c(O)c2)c1 [Tannic acid] | 0.35 µM | 8.31 % of control | – |
